From ChEMBL document CHEMBL1201862, “PubChem BioAssay data set” (2004)
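Assay format: 96-well plates, 48-hour exposure. The concentration for 50% growth inhibition is given as GI50.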 Active and inactive are the calls of the source. Rule as the data show it: active = GI50 up to about 1.1 µM and inactive = higher.

How the values were obtained:
Assay in all cases: growth of human tumour cells (NCI), 48 h
HOP-62 = test system: HOP-62
K562 = test system: K562
KM12 = test system: KM12
UO-31 = test system: UO-31
HL-60 = test system: HL-60
U-251 = test system: U-251
UACC-257 = test system: UACC-257
SW-620 = test system: SW-620
MOLT-4 = test system: MOLT-4
DLD-1 = test system: DLD-1
SK-MEL-28 = test system: SK-MEL-28
NCI-H460 = test system: NCI-H460
Malme-3M = test system: Malme-3M
786-0 = test system: 786-0
TK-10 = test system: TK-10
SNB-19 = test system: SNB-19
ACHN = test system: ACHN
DMS-273 = test system: DMS-273
COLO 205 = test system: COLO 205
HCC 2998 = test system: HCC 2998
SNB-75 = test system: SNB-75
SF-539 = test system: SF-539
SR = test system: SR
SK-MEL-5 = test system: SK-MEL-5
OVCAR-4 = test system: OVCAR-4
KM-20L2 = test system: KM-20L2
SF-268 = test system: SF-268
M14 = test system: M14
RPMI-8226 = test system: RPMI-8226
OVCAR-8 = test system: OVCAR-8
M19-MEL = test system: M19-MEL
NCI-H23 = test system: NCI-H23
OVCAR-3 = test system: OVCAR-3
NCI-H226 = test system: NCI-H226
CCRF-CEM = test system: CCRF-CEM
HCT-116 = test system: HCT-116
A549 = test system: A549
SK-MEL-2 = test system: SK-MEL-2
LXFL 529 = test system: LXFL 529
NCI-H522 = test system: NCI-H522
OVCAR-5 = test system: OVCAR-5
HCT-15 = test system: HCT-15
DMS-114 = test system: DMS-114
SF-295 = test system: SF-295
HT-29 = test system: HT-29
IGROV-1 = test system: IGROV-1
CAKI-1 = test system: CAKI-1
HOP-92 = test system: HOP-92
UACC-62 = test system: UACC-62
SK-OV-3 = test system: SK-OV-3
SN12C = test system: SN12C
RXF 393 = test system: RXF 393
EKVX = test system: EKVX
SNB-78 = test system: SNB-78
LOX IMVI = test system: LOX IMVI

Cc1ccc(-c2cc(=S)n(-c3ccccc3)c3[nH]c(=S)n(-c4ccccc4)c(=N)c23)cc1
GI50 (HOP-62): > 100 µM (inactive) | GI50 (K562): > 100 µM (inactive) | GI50 (KM12): > 100 µM (inactive) | GI50 (UO-31): > 100 µM (inactive) | GI50 (HL-60): > 100 µM (inactive) | GI50 (U-251): > 100 µM (inactive) | GI50 (UACC-257): > 100 µM (inactive) | GI50 (SW-620): > 100 µM (inactive) | GI50 (MOLT-4): > 100 µM (inactive) | GI50 (DLD-1): > 100 µM (inactive) | GI50 (SK-MEL-28): > 100 µM (inactive) | GI50 (NCI-H460): > 100 µM (inactive) | GI50 (Malme-3M): > 100 µM (inactive) | GI50 (786-0): > 100 µM (inactive) | GI50 (TK-10): > 100 µM (inactive) | GI50 (SNB-19): > 100 µM (inactive) | GI50 (ACHN): > 100 µM (inactive) | GI50 (DMS-273): > 100 µM (inactive) | GI50 (COLO 205): > 100 µM (inactive) | GI50 (HCC 2998): > 100 µM (inactive) | GI50 (SNB-75): > 100 µM (inactive) | GI50 (SF-539): > 100 µM (inactive) | GI50 (SR): > 100 µM (inactive) | GI50 (SK-MEL-5): > 100 µM (inactive) | GI50 (OVCAR-4): > 100 µM (inactive) | GI50 (KM-20L2): > 100 µM (inactive) | GI50 (SF-268): > 100 µM (inactive) | GI50 (M14): > 100 µM (inactive) | GI50 (RPMI-8226): > 100 µM (inactive) | GI50 (OVCAR-8): > 100 µM (inactive) | GI50 (M19-MEL): > 100 µM (inactive) | GI50 (NCI-H23): > 100 µM (inactive) | GI50 (OVCAR-3): > 100 µM (inactive) | GI50 (NCI-H226): > 100 µM (inactive) | GI50 (CCRF-CEM): > 100 µM (inactive) | GI50 (HCT-116): > 100 µM (inactive) | GI50 (A549): > 100 µM (inactive) | GI50 (SK-MEL-2): > 100 µM (inactive) | GI50 (LXFL 529): > 100 µM (inactive) | GI50 (NCI-H522): 77.8 µM (inactive) | GI50 (OVCAR-5): > 100 µM (inactive) | GI50 (HCT-15): > 100 µM | GI50 (DMS-114): > 100 µM (inactive) | GI50 (SF-295): > 100 µM (inactive) | GI50 (HT-29): > 100 µM (inactive) | GI50 (IGROV-1): > 100 µM (inactive) | GI50 (CAKI-1): > 100 µM (inactive) | GI50 (HOP-92): > 100 µM (inactive) | GI50 (UACC-62): > 100 µM (inactive)

CCc1ccccc1NC(=O)C1=C(C)NC(C)=C(C(=O)Nc2ccccc2CC)C1c1ccc(NC(C)=O)cc1
GI50 (HOP-62): 36.7 µM (inactive) | GI50 (K562): 23.1 µM (inactive) | GI50 (KM12): 28.1 µM (inactive) | GI50 (UO-31): 35.2 µM (inactive) | GI50 (HL-60): 14.3 µM (inactive) | GI50 (U-251): 53.6 µM (inactive) | GI50 (SK-OV-3): > 100 µM (inactive) | GI50 (UACC-257): 36.3 µM (inactive) | GI50 (SW-620): 41.2 µM (inactive) | GI50 (MOLT-4): 15.3 µM (inactive) | GI50 (DLD-1): 26.5 µM (inactive) | GI50 (SN12C): 29.8 µM (inactive) | GI50 (SK-MEL-28): 22.2 µM (inactive) | GI50 (NCI-H460): 30.5 µM (inactive) | GI50 (Malme-3M): 49.1 µM (inactive) | GI50 (786-0): 37.8 µM (inactive) | GI50 (TK-10): > 100 µM (inactive) | GI50 (SNB-19): 92.7 µM (inactive) | GI50 (ACHN): 28.5 µM (inactive) | GI50 (COLO 205): 58.3 µM (inactive) | GI50 (HCC 2998): 19.5 µM (inactive) | GI50 (RXF 393): 17.4 µM (inactive) | GI50 (SNB-75): 21.4 µM (inactive) | GI50 (SF-539): 25.9 µM (inactive) | GI50 (SK-MEL-5): 38.1 µM (inactive) | GI50 (OVCAR-4): 35.1 µM (inactive) | GI50 (KM-20L2): 16.4 µM (inactive) | GI50 (SF-268): 38.1 µM (inactive) | GI50 (M14): 39 µM (inactive) | GI50 (RPMI-8226): 17 µM (inactive) | GI50 (OVCAR-8): 33.9 µM (inactive) | GI50 (M19-MEL): 32.7 µM (inactive) | GI50 (NCI-H23): 42.7 µM (inactive) | GI50 (EKVX): 60.7 µM (inactive) | GI50 (OVCAR-3): 33.2 µM (inactive) | GI50 (NCI-H226): 29.4 µM (inactive) | GI50 (CCRF-CEM): 18.7 µM (inactive) | GI50 (HCT-116): 35.2 µM (inactive) | GI50 (A549): 51.1 µM (inactive) | GI50 (SK-MEL-2): 22.4 µM (inactive) | GI50 (LXFL 529): 33 µM (inactive) | GI50 (NCI-H522): 20.8 µM (inactive) | GI50 (OVCAR-5): > 100 µM (inactive) | GI50 (SNB-78): 33.3 µM (inactive) | GI50 (DMS-114): 28.1 µM (inactive) | GI50 (SF-295): 54.7 µM (inactive) | GI50 (HT-29): 37.7 µM (inactive) | GI50 (IGROV-1): 28.4 µM (inactive) | GI50 (CAKI-1): 43.1 µM (inactive) | GI50 (HOP-92): 25.8 µM (inactive) | GI50 (LOX IMVI): 16.1 µM (inactive)
